The record followed here is patent US20260317309A1, “N-HETEROCYLIC GPCR RECEPTOR AGONISTS, PHARMACEUTICAL COMPOSITIONS COMPRISING THE SAME, AND METHODS FOR THEIR USE” (Carmot Therapeutics, Inc., priority 2022, published 2026).

The target in the assay is T1, human GLP-1 receptor (Homo sapiens, UniProt P43220).
T1 construct: expressed in transfected cells
As to the kind of experiment: GLP-1R cAMP assay (cAMP accumulation in CHO cells stably overexpressing the human GLP-1 receptor, HitHunter kit). In kind it is cell-based. The note with it: CHO cells stably overexpressing human GLP-1R, 30 min, 20-point dose response in triplicate. Here is the method: CAMP accumulation was measured in Chinese hamster ovary (CHO) cells (10,000 cells/well) stably overexpressing the human GLP-1 receptor using the HitHunter CAMP Assay for Small Molecules Kit (Eurofins). Briefly, cells were grown in Ham's F12 Nutrient Mix with 10% FBS, and lifted with Cell Dissociation Buffer, Enzyme free, PBS based (ThermoFisher). Cells were pelleted, and resuspended in Hank's buffered saline solution with 10 mM HEPES, and 625 μM 3-isobutyl-1-methylxanthine. The anti-cAMP antibody reagent was then added to cells at a 1:2 ratio and 5 μL of mixture was seeded in 384-well small volume white assay plates, at 10,000 cells/well. Cells were then treated with 50 nL compound using an ECHO 550 acoustic dispenser (Labcyte) in a 20-point dose response format in triplicate for 30 min. Cells were then lysed, and detection reagents added according to the manufacturer's protocol. After overnight incubation, luminescence was measured using a Perkin Elmer Envision plate reader. Dose response curves were analyzed using GraphPad Prism 9.0.
In the Table, EC50 values are designated as follows: • A: 0 nM<EC50<0.1 nM; • B: 0.1 nM≤EC50<1.0 nM; • C: 1.0 nM≤EC50<10.0 nM; • D: 10.0 nM≤EC50<100 nM; • E: 100 nM≤EC50<500 nM; and • F: ≥500 nM
For orientation: cAMP levels reflect the balance of adenylyl cyclase and phosphodiesterase activity.

Some results are limits rather than exact numbers.

T1 sequence (P43220 24-463): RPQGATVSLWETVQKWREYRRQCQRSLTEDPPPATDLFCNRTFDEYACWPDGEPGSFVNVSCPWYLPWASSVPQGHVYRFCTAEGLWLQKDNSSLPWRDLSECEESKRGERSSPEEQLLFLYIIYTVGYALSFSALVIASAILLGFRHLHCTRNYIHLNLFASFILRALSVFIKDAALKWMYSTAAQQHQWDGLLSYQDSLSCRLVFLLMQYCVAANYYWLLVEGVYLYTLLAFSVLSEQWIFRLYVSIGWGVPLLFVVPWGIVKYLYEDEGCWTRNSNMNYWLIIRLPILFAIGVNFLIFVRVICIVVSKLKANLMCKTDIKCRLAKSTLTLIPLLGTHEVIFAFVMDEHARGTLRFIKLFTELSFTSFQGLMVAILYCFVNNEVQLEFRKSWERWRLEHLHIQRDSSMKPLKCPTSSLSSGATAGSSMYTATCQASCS

By EC50 is commonly meant the midpoint of the concentration-response curve. Regarding `C[C@H]1C[C@@H](Oc2ccnc(COc3ccc(F)cc3C#N)n2)CCN1Cc1nc2ccc(C(=O)O)c(F)c2n1C[C@@H]1CCO1` [Compound 573, 2-{[(2S,4S)-4-({2-[(2-cyano-4-fluorophenoxy)methyl]pyrimidin-4-yl}oxy)-2-methylpiperidin-1-yl]methyl}-7-fluoro-1-{[(2S)-oxetan-2-yl]methyl}-1H-1,3-benzodiazole-6-carboxylic acid], the EC50 was less than 0.1 nM.
In the case of `C[C@H]1C[C@@H](Oc2ccnc(COc3ccc(F)cc3C#N)n2)CCN1Cc1nc2cnc(C(=O)O)cc2n1C[C@@H]1CCO1` [Compound 574, 2-{[(2S,4S)-4-({2-[(2-cyano-4-fluorophenoxy)methyl]pyrimidin-4-yl}oxy)-2-methylpiperidin-1-yl]methyl}-1-{[(2S)-oxetan-2-yl]methyl}-1H-imidazo[4,5-c]pyridine-6-carboxylic acid] it was 1 to 10 nM; in that of `C[C@H]1C[C@@H](Oc2ccnc(COc3ccc(F)cc3F)n2)CCN1Cc1nc2ccc(C(=O)O)cc2n1C[C@H]1CCOC1` [Compound 575, 2-{[(2S,4S)-4-({2-[(2,4-Difluorophenoxy)methyl]pyrimidin-4-yl}oxy)-2-methylpiperidin-1-yl]methyl}-1-{[(3R)-oxolan-3-yl]methyl}-1H-1,3-benzodiazole-6-carboxylic acid], 0.1 to 1 nM.
On to `C[C@H]1C[C@@H](Oc2ccnc(COc3ccc(F)cc3F)n2)CCN1Cc1nc2c(F)cc(C(=O)O)cc2n1C[C@@H]1CCO1` [Compound 576, 2-{[(2S,4S)-4-({2-[(2,4-di-fluorophenoxy)methyl]pyrimidin-4-yl}oxy)-2-methylpiperidin-1-yl]methyl}-4-fluoro-1-{[(2S)-oxetan-2-yl]methyl}-1H-1,3-benzodiazole-6-carboxylic acid], for which the EC50 was less than 0.1 nM.
Turning to `CO[C@H]1COC[C@H]1n1c(CN2CC[C@H](Oc3ccnc(COc4ccc(F)cc4F)n3)C[C@@H]2C)nc2ccc(C(=O)O)cc21` [Compound 577, 2-(((2S,4S)-4-((2-((2,4-Difluorophenoxy)methyl)pyrimidin-4-yl)oxy)-2-methylpiperidin-1-yl)methyl)-1-((3R,4R)-4-methoxytetrahydrofuran-3-yl)-1H-benzo[d]imidazole-6-carboxylic acid], the EC50 lay within 0.1 to 1 nM.
For `C[C@H]1C[C@@H](Oc2ccnc(COc3ccc(C#N)cc3F)n2)CCN1Cc1nc2ccc(C(=O)O)cc2n1C[C@@H]1CCOC1` [Compound 578, 2-{[(2S,4S)-4-({2-[(4-cyano-2-fluorophenoxy)methyl]pyrimidin-4-yl}oxy)-2-methylpiperidin-1-yl]methyl}-1-{[(3S)-oxolan-3-yl]methyl}-1H-1,3-benzodiazole-6-carboxylic acid], the EC50 lay in the range of 0.1 to 1 nM.
`C[C@H]1C[C@@H](Oc2ccnc(COc3ccc(C#N)cc3F)n2)CCN1Cc1nc2ccc(C(=O)O)cc2n1C[C@@H]1CCCO1` [Compound 579, 2-{[(2S,4S)-4-({2-[(4-cyano-2-fluorophenoxy)methyl]pyrimidin-4-yl}oxy)-2-methylpiperidin-1-yl]methyl}-1-{[(2S)-oxolan-2-yl]methyl}-1H-1,3-benzodiazole-6-carboxylic acid] had an EC50 of 0.1 to 1 nM.
`N#Cc1ccc(OCc2nccc(OC3CCN(Cc4nc5cnc(C(=O)O)cc5n4C[C@@H]4CCO4)CC3)n2)c(F)c1` [Compound 580, 2-{[4-({2-[(4-Cyano-2-fluorophenoxy)methyl]pyrimidin-4-yl}oxy)piperidin-1-yl]methyl}-1-{[(2S)-oxetan-2-yl]methyl}-1H-imidazo[4,5-c]pyridine-6-carboxylic acid]: the EC50 lay in the range of 1 to 10 nM.
In turn, `C[C@H]1C[C@@H](Oc2nc(COc3ccc(F)cc3F)ncc2F)CCN1Cc1nc2ccc(C(=O)O)cc2n1C[C@@H]1CCO1` [Compound 581, 2-{[(2S,4S)-4-({2-[(2,4-difluorophenoxy)methyl]-5-fluoropyrimidin-4-yl}oxy)-2-methylpiperidin-1-yl]methyl}-1-{[(2S)-oxetan-2-yl]methyl}-1H-1,3-benzodiazole-6-carboxylic acid] gave an EC50 of less than 0.1 nM.
Take `C[C@H]1C[C@@H](Oc2ccnc(COc3ccc(F)cc3F)n2)CCN1Cc1nc2ccc(C(=O)O)cc2n1CC1(F)COC1` [Compound 582, 2-{[(2S,4S)-4-({2-[(2,4-Difluorophenoxy)methyl]pyrimidin-4-yl}oxy)-2-methylpiperidin-1-yl]methyl}-1-[(3-fluorooxetan-3-yl)methyl]-1H-1,3-benzodiazole-6-carboxylic acid]: the EC50 was 0.1 to 1 nM.
The compound `C[C@H]1C[C@@H](Oc2ccnc(COc3ccc(F)cc3F)n2)CCN1Cc1nc2ccc(C(=O)O)cc2n1CC1(C(F)F)COC1` [Compound 583, 1-{[3-(difluoromethyl)oxetan-3-yl]methyl}-2-{[(2S,4S)-4-({2-[(2,4-difluorophenoxy)methyl]pyrimidin-4-yl}oxy)-2-methylpiperidin-1-yl]methyl}-1H-1,3-benzodiazole-6-carboxylic acid] had an EC50 of 0.1 to 1 nM.
`C[C@H]1C[C@@H](Oc2ccnc(COc3ccc(F)cc3F)n2)CCN1Cc1nc2ccc(C(=O)O)cc2n1C[C@@H]1CCOC1` [Compound 584, 2-{[(2S,4S)-4-({2-[(2,4-Difluorophenoxy)methyl]pyrimidin-4-yl}oxy)-2-methylpiperidin-1-yl]methyl}-1-{[(3S)-oxolan-3-yl]methyl}-1H-1,3-benzodiazole-6-carboxylic acid] registered an EC50 of 0.1 to 1 nM.
`Cc1cc2nc(CN3CC[C@H](Oc4ccnc(COc5ccc(F)cc5F)n4)C[C@@H]3C)n(C[C@@H]3CCO3)c2cc1C(=O)O` [Compound 585, 2-{[(2S,4S)-4-({2-[(2,4-Difluorophenoxy)methyl]pyrimidin-4-yl}oxy)-2-methylpiperidin-1-yl]methyl}-5-methyl-1-{[(2S)-oxetan-2-yl]methyl}-1H-1,3-benzodiazole-6-carboxylic acid] gave an EC50 of 0.1 to 1 nM.
In turn, `CC[C@@H]1C[C@H](Oc2ccnc(COc3ccc(C#N)cc3F)n2)CCN1Cc1nc2ccc(C(=O)O)cc2n1C[C@@H]1CCO1` [Compound 586, 2-{[(2R,4R)-4-({2-[(4-Cyano-2-fluorophenoxy)methyl]pyrimidin-4-yl}oxy)-2-ethylpiperidin-1-yl]methyl}-1-{[(2S)-oxetan-2-yl]methyl}-1H-1,3-benzodiazole-6-carboxylic acid] showed an EC50 of 1 to 10 nM.
Compound `CC[C@H]1C[C@@H](Oc2ccnc(COc3ccc(C#N)cc3F)n2)CCN1Cc1nc2ccc(C(=O)O)cc2n1C[C@@H]1CCO1` [Compound 587, 2-{[(2S,4S)-4-({2-[(4-Cyano-2-fluorophenoxy)methyl]pyrimidin-4-yl}oxy)-2-ethylpiperidin-1-yl]methyl}-1-{[(2S)-oxetan-2-yl]methyl}-1H-1,3-benzodiazole-6-carboxylic acid] gave an EC50 of less than 0.1 nM.
Compound `C[C@H]1C[C@@H](Oc2ccnc(COc3ccc(F)cc3F)n2)CCN1Cc1nc2ccc(C(=O)O)cc2n1CCOCC(F)(F)F` [Compound 588, 2-{[(2S,4S)-4-({2-[(2,4-Difluorophenoxy)methyl]pyrimidin-4-yl}oxy)-2-methylpiperidin-1-yl]methyl}-1-[2-(2,2,2-trifluoroethoxy)ethyl]-1H-1,3-benzodiazole-6-carboxylic acid] yielded an EC50 of less than 0.1 nM.
`C[C@H]1C[C@@H](Oc2ccnc(COc3ccc(F)cc3F)n2)CCN1Cc1nc2ccc(C(=O)O)cc2n1C[C@@H]1CCCO1` [Compound 589, 2-{[(2S,4S)-4-({2-[(2,4-Difluorophenoxy)methyl]pyrimidin-4-yl}oxy)-2-methylpiperidin-1-yl]methyl}-1-{[(2S)-oxolan-2-yl]methyl}-1H-1,3-benzodiazole-6-carboxylic acid] came in with an EC50 of 0.1 to 1 nM.
With `C[C@H]1C[C@@H](Oc2ccnc(COc3ccc(F)cc3F)n2)CCN1Cc1nc2ccc(C(=O)O)cc2n1CC1CCC1` [Compound 590, 1-(Cyclobutylmethyl)-2-{[(2S,4S)-4-({2-[(2,4-difluorophenoxy)methyl]pyrimidin-4-yl}oxy)-2-methylpiperidin-1-yl]methyl}-1H-1,3-benzodiazole-6-carboxylic acid] the figure was 0.1 to 1 nM; with `C[C@@H](Cn1c(CN2CC[C@H](Oc3ccnc(COc4ccc(F)cc4F)n3)C[C@@H]2C)nc2ccc(C(=O)O)cc21)OC(F)F` [Compound 591, 1-[(2S)-2-(Difluoromethoxy)propyl]-2-{[(2S,4S)-4-({2-[(2,4-difluorophenoxy)methyl]pyrimidin-4-yl}oxy)-2-methylpiperidin-1-yl]methyl}-1H-1,3-benzodiazole-6-carboxylic acid], 0.1 to 1 nM; with `C[C@H](Cn1c(CN2CC[C@H](Oc3ccnc(COc4ccc(F)cc4F)n3)C[C@@H]2C)nc2ccc(C(=O)O)cc21)OC(F)F` [Compound 592, 1-[(2R)-2-(Difluoromethoxy)propyl]-2-{[(2S,4S)-4-({2-[(2,4-difluorophenoxy)methyl]pyrimidin-4-yl}oxy)-2-methylpiperidin-1-yl]methyl}-1H-1,3-benzodiazole-6-carboxylic acid], less than 0.1 nM.
The compound `C[C@H](Cn1c(CN2CC[C@H](Oc3ccnc(COc4ccc(F)cc4F)n3)C[C@@H]2C)nc2ccc(C(=O)O)cc21)OCC(F)(F)F` [Compound 594, 2-{[(2S,4S)-4-({2-[(2,4-Difluorophenoxy)methyl]pyrimidin-4-yl}oxy)-2-methylpiperidin-1-yl]methyl}-1-[(2R)-2-(2,2,2-trifluoroethoxy)propyl]-1H-1,3-benzodiazole-6-carboxylic acid] displayed an EC50 of 1 to 10 nM.
